In the supplement of paper PMC10307832:

Assays:
Experiment in all cases: relative viability (nuclei count vs DMSO), 5 days (fraction); higher = more cells survive
NCI-H2405 = tested on: NCI-H2405
How it was run: (§1)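 Lung cancer cell lines in 1536-well plates got either a single drug or a fixed anchor-drug dose together with five library-drug doses (not always all listed) in √10 steps, by pin tool, on the day after seeding. Nuclei were counted after 5 days, and relative viability is the treated-to-vehicle ratio of nuclei counts. Values are medians of duplicate plates.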

NCI-H2126 = tested on: NCI-H2126
How it was run: as §1

SK-LU-1 = tested on: SK-LU-1
How it was run: as §1

NCI-H1944 = tested on: NCI-H1944
How it was run: as §1

HCC-15 = tested on: HCC-15
How it was run: as §1

HARA = tested on: HARA
How it was run: as §1

NCI-H2228 = tested on: NCI-H2228
How it was run: as §1

LC-2-ad = tested on: LC-2-ad
How it was run: as §1

ABC-1 = tested on: ABC-1
How it was run: as §1

NCI-H23 = tested on: NCI-H23
How it was run: as §1

COR-L23 = tested on: COR-L23
How it was run: as §1

ChaGo-K-1 = tested on: ChaGo-K-1
How it was run: as §1

NCI-H358 = tested on: NCI-H358
How it was run: as §1

NCI-H1793 = tested on: NCI-H1793
How it was run: as §1

HCC-366 = tested on: HCC-366
How it was run: as §1

NCI-H1395 = tested on: NCI-H1395
How it was run: as §1

HCC-78 = tested on: HCC-78
How it was run: as §1

EMC-BAC-2 = tested on: EMC-BAC-2
How it was run: as §1

NCI-H1993 = tested on: NCI-H1993
How it was run: as §1

NCI-H838 = tested on: NCI-H838
How it was run: as §1

HOP-62 = tested on: HOP-62
How it was run: as §1

NCI-H2023 = tested on: NCI-H2023
How it was run: as §1

Work on `CCN(CC)CCCCNc1ncc2cc(-c3cc(OC)cc(OC)c3)c(NC(=O)NC(C)(C)C)nc2n1` + COc1cccc2cc(-c3nc([C@H]4CC[C@H](C(=O)O)CC4)n4ncnc(N)c34)[nH]c12 [OSI-027] (partner 0.5 µM) yielded a relative viability (NCI-H2405; first compound 0.01 µM) of 0.647, a relative viability (NCI-H2405; first compound 0.03162 µM) of 0.659 and a relative viability (NCI-H2405; first compound 0.1 µM) of 0.585. For the same molecule, the relative viability (NCI-H2405; first compound 0.3162 µM) was 0.602, the relative viability (NCI-H2405; first compound 1 µM) was 0.691 and the relative viability (NCI-H2126; first compound 0.01 µM) was 0.583. For the same molecule, the relative viability (NCI-H2126; first compound 0.03162 µM) was 0.768, the relative viability (NCI-H2126; first compound 0.1 µM) was 0.704 and the relative viability (NCI-H2126; first compound 0.3162 µM) was 0.756. The relative viability (NCI-H2126; first compound 1 µM) was 0.707, the relative viability (SK-LU-1; first compound 0.01 µM) was 0.412 and the relative viability (SK-LU-1; first compound 0.03162 µM) was 0.377. It also gave a relative viability (SK-LU-1; first compound 0.1 µM) of 0.33, a relative viability (SK-LU-1; first compound 0.3162 µM) of 0.341 and a relative viability (SK-LU-1; first compound 1 µM) of 0.219. It also gave a relative viability (NCI-H1944; first compound 0.01 µM) of 0.417, a relative viability (NCI-H1944; first compound 0.03162 µM) of 0.449 and a relative viability (NCI-H1944; first compound 0.1 µM) of 0.437. The relative viability (NCI-H1944; first compound 0.3162 µM) was 0.406, the relative viability (NCI-H1944; first compound 1 µM) was 0.351 and the relative viability (HCC-15; first compound 0.01 µM) was 0.662. The relative viability (HCC-15; first compound 0.03162 µM) was 0.673, the relative viability (HCC-15; first compound 0.1 µM) was 0.717 and the relative viability (HCC-15; first compound 0.3162 µM) was 0.936. The relative viability (HCC-15; first compound 1 µM) was 0.577, the relative viability (HARA; first compound 0.01 µM) was 0.522 and the relative viability (HARA; first compound 0.03162 µM) was 0.647. The relative viability (HARA; first compound 0.1 µM) was 0.429, the relative viability (HARA; first compound 0.3162 µM) was 0.697 and the relative viability (HARA; first compound 1 µM) was 0.446. For the same molecule, the relative viability (NCI-H2228; first compound 0.01 µM) was 0.599, the relative viability (NCI-H2228; first compound 0.03162 µM) was 0.505 and the relative viability (NCI-H2228; first compound 0.1 µM) was 0.582. For the same molecule, the relative viability (NCI-H2228; first compound 0.3162 µM) was 0.63, the relative viability (NCI-H2228; first compound 1 µM) was 0.363 and the relative viability (LC-2-ad; first compound 0.01 µM) was 0.776. For the same molecule, the relative viability (LC-2-ad; first compound 0.03162 µM) was 1.05, the relative viability (LC-2-ad; first compound 0.1 µM) was 0.909 and the relative viability (LC-2-ad; first compound 0.3162 µM) was 0.854. It also gave a relative viability (LC-2-ad; first compound 1 µM) of 0.75, a relative viability (ABC-1; first compound 0.01 µM) of 0.433 and a relative viability (ABC-1; first compound 0.03162 µM) of 0.389. For the same molecule, the relative viability (ABC-1; first compound 0.1 µM) was 0.55, the relative viability (ABC-1; first compound 0.3162 µM) was 0.499 and the relative viability (ABC-1; first compound 1 µM) was 0.402. For the same molecule, the relative viability (NCI-H23; first compound 0.01 µM) was 0.566, the relative viability (NCI-H23; first compound 0.03162 µM) was 0.679 and the relative viability (NCI-H23; first compound 0.1 µM) was 0.738. The relative viability (NCI-H23; first compound 0.3162 µM) was 0.731, the relative viability (NCI-H23; first compound 1 µM) was 0.623 and the relative viability (COR-L23; first compound 0.01 µM) was 1.19. The relative viability (COR-L23; first compound 0.03162 µM) was 0.873, the relative viability (COR-L23; first compound 0.1 µM) was 1.06 and the relative viability (COR-L23; first compound 0.3162 µM) was 1.07. It also gave a relative viability (COR-L23; first compound 1 µM) of 0.503, a relative viability (ChaGo-K-1; first compound 0.01 µM) of 0.618 and a relative viability (ChaGo-K-1; first compound 0.03162 µM) of 0.671. The relative viability (ChaGo-K-1; first compound 0.1 µM) was 0.619, the relative viability (ChaGo-K-1; first compound 0.3162 µM) was 0.559 and the relative viability (ChaGo-K-1; first compound 1 µM) was 0.513. The relative viability (NCI-H358; first compound 0.01 µM) was 0.791, the relative viability (NCI-H358; first compound 0.03162 µM) was 0.803 and the relative viability (NCI-H358; first compound 0.1 µM) was 1.12. The relative viability (NCI-H358; first compound 0.3162 µM) was 0.996, the relative viability (NCI-H358; first compound 1 µM) was 0.694 and the relative viability (NCI-H1793; first compound 0.01 µM) was 0.238. For the same molecule, the relative viability (NCI-H1793; first compound 0.03162 µM) was 0.253, the relative viability (NCI-H1793; first compound 0.1 µM) was 0.318 and the relative viability (NCI-H1793; first compound 0.3162 µM) was 0.307. The relative viability (NCI-H1793; first compound 1 µM) was 0.206, the relative viability (HCC-366; first compound 0.01 µM) was 1.02 and the relative viability (HCC-366; first compound 0.03162 µM) was 1.01. It also gave a relative viability (HCC-366; first compound 0.1 µM) of 1.2, a relative viability (HCC-366; first compound 0.3162 µM) of 1.06 and a relative viability (HCC-366; first compound 1 µM) of 1.24. It also gave a relative viability (NCI-H1395; first compound 0.01 µM) of 0.578, a relative viability (NCI-H1395; first compound 0.03162 µM) of 0.697 and a relative viability (NCI-H1395; first compound 0.1 µM) of 0.745. For the same molecule, the relative viability (NCI-H1395; first compound 0.3162 µM) was 0.554, the relative viability (NCI-H1395; first compound 1 µM) was 0.458 and the relative viability (HCC-78; first compound 0.01 µM) was 0.36. The relative viability (HCC-78; first compound 0.03162 µM) was 0.381, the relative viability (HCC-78; first compound 0.1 µM) was 0.468 and the relative viability (HCC-78; first compound 0.3162 µM) was 0.349. The relative viability (HCC-78; first compound 1 µM) was 0.357, the relative viability (EMC-BAC-2; first compound 0.01 µM) was 0.38 and the relative viability (EMC-BAC-2; first compound 0.03162 µM) was 0.399. The relative viability (EMC-BAC-2; first compound 0.1 µM) was 0.398, the relative viability (EMC-BAC-2; first compound 0.3162 µM) was 0.471 and the relative viability (EMC-BAC-2; first compound 1 µM) was 0.358. For the same molecule, the relative viability (NCI-H1993; first compound 0.01 µM) was 0.259, the relative viability (NCI-H1993; first compound 0.03162 µM) was 0.559 and the relative viability (NCI-H1993; first compound 0.1 µM) was 0.532. It also gave a relative viability (NCI-H1993; first compound 0.3162 µM) of 0.604, a relative viability (NCI-H1993; first compound 1 µM) of 0.535 and a relative viability (NCI-H838; first compound 0.01 µM) of 0.373. It also gave a relative viability (NCI-H838; first compound 0.03162 µM) of 0.39, a relative viability (NCI-H838; first compound 0.1 µM) of 0.449 and a relative viability (NCI-H838; first compound 0.3162 µM) of 0.377. It also gave a relative viability (NCI-H838; first compound 1 µM) of 0.273, a relative viability (HOP-62; first compound 0.01 µM) of 0.89 and a relative viability (HOP-62; first compound 0.03162 µM) of 0.873. The relative viability (HOP-62; first compound 0.1 µM) was 1.12, the relative viability (HOP-62; first compound 0.3162 µM) was 1.11 and the relative viability (HOP-62; first compound 1 µM) was 0.771. The relative viability (NCI-H2023; first compound 0.01 µM) was 0.426, the relative viability (NCI-H2023; first compound 0.03162 µM) was 0.452 and the relative viability (NCI-H2023; first compound 0.1 µM) was 0.518. The relative viability (NCI-H2023; first compound 0.3162 µM) was 0.486 and the relative viability (NCI-H2023; first compound 1 µM) was 0.359.
